In brackets after ≈: the same amount, converted by molar mass. Structures can show the parent of a compound that is named as a salt. Where two headings read alike, the source gives them in different places.
Columns and labels:
Test in all cases: MIC determination by AFST-EUCAST standard methodology
C. glabrata 70E = assay type: cell-based; settings: C. glabrata 70E, 24 h, visually and spectrophotometrically, read-out: Antifungal activity, expressed as MIC50
Description: (§1) Determination of MICs by AFST-EUCAST Standard Methodology
(§2) Assay medium. The assay medium was RPMI […] without NaHCO3 and with L-glutamine (Sigma Aldrich, Italy), buffered at pH 7.0 with 0.165 M morpholinepropanesulphonic acid (Sigma Aldrich, Italy) and supplemented with 2% (w/v) glucose. The medium, prepared as double-strength solution, was sterilized by filtration and diluted 1:2 (v/v) with the fungal inoculum prepared in sterile distilled water.
(§3) The yeast isolates were grown on Sabouraud dextrose agar (Oxoid, Madrid, Spain) for 48 h at 37° C. before testing. Suspensions were prepared by combining five distinct colonies of each culture of >1 mm diameter. A spectrophotometric procedure for inoculum preparation was used. The final inoculum suspension, prepared in sterile distilled water, contained between 0.5·10^5 and 2.5·10^5 cfu/mL.
(§4) Stock solutions of test compounds were prepared in 100% dimethyl sulfoxide. Stock solutions were prepared as 100× concentration relative to the highest concentration in the antifungal activity test, and frozen at −70° C. until used.
(§5) Sterile plastic micro titration plates containing flat-bottomed wells were used. The plates contained serial dilution of the antifungal agents with a volume of assay medium of 100 μL/well. Two drug-free medium wells were used as sterility and growth controls. The trays were inoculated with 100 μL/well of the final inoculum, with the exception of sterility control wells. The range of concentrations tested for each drug was 1.25-80 μM. The microtitration plates were incubated at 37° C. for 24 h. The minimal inhibitory concentrations (MICs) were determined at 24 h both visually and spectrophotometrically.
(§6) By visual endpoint determination, MICs were determined according to a S-1-R scale, with S (susceptible) indicating an optical clear culture, I (intermediate susceptibility) indicating a slightly hazy culture, and R (resistant) indicating no reduction in turbidity. The MIC50 was defined as the lowest concentration of a drug which correspond to a S culture.
(§7) Microtitration plates were stirred using a microtitration plate shaker before reading to ensure uniform turbidity. MICs were obtained by measuring the absorbance at 450 nm with a microtitration plate reader. The value of the blank was subtracted from reading of the rest of the wells. Two endpoints were defined for each antifungal agent tested, with MIC80 indicating the lowest drug concentration resulting in a reduction of growth of 80% or more (determined spectrophotometrically) compared with the growth of the control, and MIC50 indicating the lowest drug concentration resulting in a reduction in growth of 50% (determined spectrophotometrically) compared with the growth of the control. The MIC50 was also defined as the spectrophotometric endpoint.

C. tropicalis 86E = assay type: cell-based; settings: 24 h, visually and spectrophotometrically, read-out: Antifungal activity, expressed as MIC50
Description: as §1, §2, §3, §4, §5, §6, §7

C. parapsilosis 64E = assay type: cell-based; settings: 24 h, visually and spectrophotometrically, read-out: Antifungal activity, expressed as MIC50
Description: as §1, §2, §3, §4, §5, §6, §7

C. parapsilosis 81E = assay type: cell-based; settings: 24 h, visually and spectrophotometrically, read-out: Antifungal activity, expressed as MIC50
Description: as §1, §2, §3, §4, §5, §6, §7

C. krusei ATCC 14243 = assay type: cell-based; settings: visually and spectrophotometrically, read-out: Antifungal activity, expressed as MIC50
Description: as §1, §2, §3, §4, §5, §6, §7

[1] = system: C. parapsilosis ATCC 34136; assay type: cell-based; settings: visually and spectrophotometrically, read-out: Antifungal activity, expressed as MIC50
Description: as §1, §2, §3, §4, §5, §6, §7

C. krusei 193T = assay type: cell-based; settings: 24 h, visually and spectrophotometrically, read-out: Antifungal activity, expressed as MIC50
Description: as §1, §2, §3, §4, §5, §6, §7

C. albicans 53T = assay type: cell-based, Candida albicans; settings: 24 h, visually and spectrophotometrically, read-out: Antifungal activity, expressed as MIC50
Description: as §1, §2, §3, §4, §5, §6, §7

C. albicans ATCC 60193 = assay type: cell-based, Candida albicans; settings: visually and spectrophotometrically, read-out: Antifungal activity, expressed as MIC50
Description: as §1, §2, §3, §4, §5, §6, §7

C. albicans 4T = assay type: cell-based, Candida albicans; settings: 24 h, visually and spectrophotometrically; for MIC50: read-out: Antifungal activity, expressed as MIC50
Description: as §1, §2, §3, §4, §5, §6, §7

C. albicans 15T = assay type: cell-based, Candida albicans; settings: 24 h, visually and spectrophotometrically, read-out: Antifungal activity, expressed as MIC50
Description: as §1, §2, §3, §4, §5, §6, §7

[2] = Pichia kudriavzevii, ATCC14243, 24 h
[3] = Lodderomyces parapsilosis, ATCC34136, 24 h
[4] = Candida albicans, ATCC60193, 24 h

Structure (SMILES)	MIC50 (C. glabrata 70E)	MIC50 (C. tropicalis 86E)	MIC50 (C. parapsilosis 64E)	MIC50 (C. parapsilosis 81E)	MIC50 (C. krusei ATCC 14243; 24 h)	MIC50 ([1]; 24 h)	MIC50 (C. krusei 193T)	MIC50 (C. albicans 53T)	MIC50 (C. albicans ATCC 60193; 24 h)	MIC50 (C. albicans 4T)	MIC50 (C. albicans 15T)	MIC50 (C. glabrata 70E; Nakaseomyces glabratus)	MIC50 (C. tropicalis 86E; Candida tropicalis)	MIC50 (C. parapsilosis 64E; Lodderomyces parapsilosis)	MIC50 (C. parapsilosis 81E; Lodderomyces parapsilosis)	MIC50 (C. krusei ATCC 14243; [2])	MIC50 [1, 3]	MIC50 (C. krusei 193T; Pichia kudriavzevii)	MIC50 (C. albicans 53T; Candida albicans)	MIC50 (C. albicans ATCC 60193; [4])	other results
N=C(N)NCCCCCCCCNCCCCCCCCNC(=N)NCC1CC1 [Compound 12c]	20 µM (≈ 8.19 µg/mL)	5 µM (≈ 2.05 µg/mL)	5 µM (≈ 2.05 µg/mL)	20 µM (≈ 8.19 µg/mL)	5 µM (≈ 2.05 µg/mL)	80 µM (≈ 32.8 µg/mL)	10 µM (≈ 4.1 µg/mL)	10 µM (≈ 4.1 µg/mL)	20 µM (≈ 8.19 µg/mL)	10 µM (≈ 4.1 µg/mL)	20 µM (≈ 8.19 µg/mL)	–	–	–	–	–	–	–	–	–	–
N=C(NCCCCCCCCN1CCCCCCCCNC(=N)NC1=O)NCc1ccccc1 [Compound 13a]	40 µM (≈ 18.9 µg/mL)	2.5 µM (≈ 1.18 µg/mL)	20 µM (≈ 9.43 µg/mL)	20 µM (≈ 9.43 µg/mL)	20 µM (≈ 9.43 µg/mL)	80 µM (≈ 37.7 µg/mL)	10 µM (≈ 4.72 µg/mL)	2.5 µM (≈ 1.18 µg/mL)	2.5 µM (≈ 1.18 µg/mL)	2.5 µM (≈ 1.18 µg/mL)	5 µM (≈ 2.36 µg/mL)	–	–	–	–	–	–	–	–	–	–
C#CCNC(=N)NCCCCCCCCN1CCCCCCCCNC(=N)NC1=O.O=C(O)C(F)(F)F.O=C(O)C(F)(F)F.O=C(O)C(F)(F)F [Compound 15b, 1-[propargyl]-3-[8-(4-imino-2-oxo-1,3,5-triazacyclotridec-1-yl)octyl]guanidine tri trifluoroacetate]	–	–	–	–	–	–	–	–	–	–	–	80 µM	5 µM	40 µM	80 µM	80 µM	40 µM	40 µM	5 µM	2.5 µM	Antifungal activity, expressed as MIC50 (C. albicans 4T): resistant; MIC50 (C. albicans 4T; Candida albicans): 80 µM; MIC50 (C. albicans 15T; Candida albicans): 2.5 µM
CC(C)=CCNC(=N)NCCCCCCCCNCCCCCCCCNC(=N)N [Compound 12f]	80 µM (≈ 33.9 µg/mL)	20 µM (≈ 8.47 µg/mL)	>80 µM	40 µM (≈ 16.9 µg/mL)	40 µM (≈ 16.9 µg/mL)	>80 µM	20 µM (≈ 8.47 µg/mL)	80 µM (≈ 33.9 µg/mL)	80 µM (≈ 33.9 µg/mL)	80 µM (≈ 33.9 µg/mL)	40 µM (≈ 16.9 µg/mL)	–	–	–	–	–	–	–	–	–	–
CC=CCNC(=N)NCCCCCCCCN1CCCCCCCCNC(=N)NC1=O [Compound 13d]	20 µM (≈ 8.71 µg/mL)	1.25 µM (≈ 0.545 µg/mL)	5 µM (≈ 2.18 µg/mL)	5 µM (≈ 2.18 µg/mL)	5 µM (≈ 2.18 µg/mL)	5 µM (≈ 2.18 µg/mL)	5 µM (≈ 2.18 µg/mL)	2.5 µM (≈ 1.09 µg/mL)	2.5 µM (≈ 1.09 µg/mL)	1.25 µM (≈ 0.545 µg/mL)	1.25 µM (≈ 0.545 µg/mL)	–	–	–	–	–	–	–	–	–	–
N=C(NCCCCCCCCN1CCCCCCCCNC(=N)NC1=O)NCc1ccccc1 [Compound 15a, 1-[benzyl]-3-[8-(4-imino-2-oxo-1,3,5-triazacyclotridec-1-yl)octyl]guanidine tri trifluoroacetate]	–	–	–	–	–	–	–	–	–	–	–	40 µM	2.5 µM	20 µM	20 µM	20 µM	80 µM	10 µM	2.5 µM	2.5 µM	MIC50 (C. albicans 4T; Candida albicans): 2.5 µM; MIC50 (C. albicans 15T; Candida albicans): 5 µM
OC(Cn1cncn1)(Cn1cncn1)c1ccc(F)cc1F [F, fluconazole, reference compound]	–	–	–	–	–	–	–	–	–	–	–	209 µM (≈ 64 µg/mL)	52 µM (≈ 15.9 µg/mL)	32 µM (≈ 9.8 µg/mL)	13 µM (≈ 3.98 µg/mL)	209 µM (≈ 64 µg/mL)	6.5 µM (≈ 1.99 µg/mL)	418 µM (≈ 128 µg/mL)	418 µM (≈ 128 µg/mL)	0.8 µM (≈ 0.245 µg/mL)	MIC50 (C. albicans 4T; Candida albicans): 209 µM (≈ 64 µg/mL); MIC50 (C. albicans 15T; Candida albicans): 209 µM (≈ 64 µg/mL)

Second part, led by results:

MIC50 (C. glabrata 70E)	MIC50 (C. tropicalis 86E)	MIC50 (C. parapsilosis 64E)	MIC50 (C. parapsilosis 81E)	MIC50 (C. krusei ATCC 14243; 24 h)	MIC50 ([1]; 24 h)	MIC50 (C. krusei 193T)	MIC50 (C. albicans 53T)	MIC50 (C. albicans ATCC 60193; 24 h)	MIC50 (C. albicans 4T)	MIC50 (C. albicans 15T)	MIC50 (C. glabrata 70E; Nakaseomyces glabratus)	MIC50 (C. tropicalis 86E; Candida tropicalis)	MIC50 (C. parapsilosis 64E; Lodderomyces parapsilosis)	MIC50 (C. parapsilosis 81E; Lodderomyces parapsilosis)	MIC50 (C. krusei ATCC 14243; [2])	MIC50 [1, 3]	MIC50 (C. krusei 193T; Pichia kudriavzevii)	MIC50 (C. albicans 53T; Candida albicans)	MIC50 (C. albicans ATCC 60193; [4])	Structure (SMILES)	other results
80 µM (≈ 34.9 µg/mL)	40 µM (≈ 17.4 µg/mL)	>80 µM	>80 µM	40 µM (≈ 17.4 µg/mL)	>80 µM	80 µM (≈ 34.9 µg/mL)	40 µM (≈ 17.4 µg/mL)	20 µM (≈ 8.71 µg/mL)	40 µM (≈ 17.4 µg/mL)	20 µM (≈ 8.71 µg/mL)	–	–	–	–	–	–	–	–	–	C=C(C)CNC(=N)NCCCCCCCCN1CCCCCCCCNC(=N)NC1=O [Compound 13e]	–
80 µM (≈ 36 µg/mL)	20 µM (≈ 8.99 µg/mL)	>80 µM	40 µM (≈ 18 µg/mL)	10 µM (≈ 4.5 µg/mL)	>80 µM	20 µM (≈ 8.99 µg/mL)	20 µM (≈ 8.99 µg/mL)	40 µM (≈ 18 µg/mL)	20 µM (≈ 8.99 µg/mL)	20 µM (≈ 8.99 µg/mL)	–	–	–	–	–	–	–	–	–	CC(C)=CCNC(=N)NCCCCCCCCN1CCCCCCCCNC(=N)NC1=O [Compound 13f]	–
80 µM (≈ 33.6 µg/mL)	5 µM (≈ 2.1 µg/mL)	40 µM (≈ 16.8 µg/mL)	80 µM (≈ 33.6 µg/mL)	80 µM (≈ 33.6 µg/mL)	40 µM (≈ 16.8 µg/mL)	40 µM (≈ 16.8 µg/mL)	5 µM (≈ 2.1 µg/mL)	2.5 µM (≈ 1.05 µg/mL)	80 µM (≈ 33.6 µg/mL)	2.5 µM (≈ 1.05 µg/mL)	–	–	–	–	–	–	–	–	–	C#CCNC(=N)NCCCCCCCCN1CCCCCCCCNC(=N)NC1=O [Compound 13b]	–
–	–	–	–	–	–	–	–	–	–	–	80 µM	40 µM	> 80 µM	> 80 µM	40 µM	> 80 µM	80 µM	40 µM	20 µM	C=C(C)CNC(=N)NCCCCCCCCN1CCCCCCCCNC(=N)NC1=O [Compound 15d, 1[β-methylallyl]-3-[8-(4-imino-2-oxo-1,3,5-triazacyclotridec-1-yl)octyl]guanidine tri trifluoroacetate]	MIC50 (C. albicans 4T; Candida albicans): 40 µM; MIC50 (C. albicans 15T; Candida albicans): 20 µM
